Experimental findings from patent US11352340B2, “Pyridine and pyridimine compounds as PI3K-gamma inhibitors” (Incyte Corporation, priority 2016, dated 2022) are described below.

Structures are written as SMILES. Where a name gives a salt, the structure may show the parent alone.

The subject of test [1] is Phosphorylated Ribosomal Protein S6 (RPS6) in THP-1 cells. The test can be described thus: THP-1 RPS6 ELISA Assay. It counts as cell-based, Human. Conditions: Homo sapiens, MCP-1 stimulated, phospho-RPS6 ELISA, read-out: THP p-RPS6 ELISA IC50. The protocol:
Example A. THP-1 RPS6 ELISA Assay
To measure the Phosphorylated Ribosomal Protein S6 (RPS6) in cell lysates, THP-1 cells (Human Acute Monocytic Leukemia) are purchased from ATCC (Manassas, Va.) and maintained in RPMI with 10% FBS (Gibco/Life Technologies, Carlsbad, Calif.). For the assay, THP-1 cells are serum starved overnight in RPMI, then plated in RPMI (2×10^5 cells/well in 90 μL) into 96-well flat-bottom tissue culture treated plates (Corning, Corning, N.Y.), in the presence or absence of a concentration range of test compounds. Covered plates are incubated for 2 hours at 37° C., 5% CO2 then treated with or without 10 nM MCP-1 (MYBioSource, San Diego, Calif.) for 15 minutes at 37° C., 5% CO2. Plates are centrifuged at 1600 RPM and supernatants are removed. Cells are lysed in Lysis Buffer (Cell Signaling, Danvers, Mass.) with Protease Inhibitor (Calbiochem/EMD, Germany), PMSF (Sigma, St Louis Mo.), HALTS (Thermo Fisher, Rockford, Ill.) for 30 min on wet ice. Cell lysates are frozen at −80° C. before testing. The lysates are tested in the Human/Mouse/Rat Phospho-RPS6 ELISA (R&D Systems, Inc. Minn, Minn.). The plate is measured using a microplate reader (SpectraMax M5—Molecular Devices, LLC Sunnyvale, Calif.) set to 450 nm with a wavelength correction of 540. IC50 determination is performed by fitting the curve of inhibitor percent inhibition versus the log of the inhibitor concentration using the GraphPad Prism 5.0 software.
(An ELISA detects its analyte on a solid surface through an enzyme-linked reagent.)

The target of test [2] is PI3Kδ (p110δ/p85α) Recombinant Human Protein (Homo sapiens (Human), UniProt O00329). The test can be described thus: PI3Kδ Scintillation Proximity Assay. It counts as biochemical. Conditions: read-out: PI3K-delta SPA IC50. The method in brief: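 IC50 was fitted to percent solvent-control activity from SPA scintillation counts after WGA bead capture of 33P-labelled lipid product. Reaction: 120 min, room temperature, 3.4 nM p110δ/p85α, 20 μM PIP2, 2 μM ATP with tracer, MOPS pH 6.7 buffer containing MgCl2, DTT, CHAPS, 2% DMSO.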
Background: SPA uses beads or plates that emit light when radiolabelled molecules are held near them.

In test [3] the target is PI3Kγ (p110γ) Recombinant Human Protein (Homo sapiens (Human), UniProt P48736). The test can be described thus: PI3K-γ Scintillation Proximity Assay. It counts as biochemical. Conditions: read-out: PI3K-gamma SPA IC50. Summed up: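 Radiometric SPA: reaction at room temperature for 120 min using 2 μM ATP with [γ-33P]ATP tracer, 20 μM PIP2 substrate and 13 nM human PI3Kγ (MOPS pH 6.7, MgCl2, DTT, CHAPS; 2% DMSO). EDTA quench with WGA beads, scintillation count, and IC50 fit of percent-of-control activity.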
Sequence of PI3Kγ (p110γ) Recombinant Human Protein (P48736 whole entry): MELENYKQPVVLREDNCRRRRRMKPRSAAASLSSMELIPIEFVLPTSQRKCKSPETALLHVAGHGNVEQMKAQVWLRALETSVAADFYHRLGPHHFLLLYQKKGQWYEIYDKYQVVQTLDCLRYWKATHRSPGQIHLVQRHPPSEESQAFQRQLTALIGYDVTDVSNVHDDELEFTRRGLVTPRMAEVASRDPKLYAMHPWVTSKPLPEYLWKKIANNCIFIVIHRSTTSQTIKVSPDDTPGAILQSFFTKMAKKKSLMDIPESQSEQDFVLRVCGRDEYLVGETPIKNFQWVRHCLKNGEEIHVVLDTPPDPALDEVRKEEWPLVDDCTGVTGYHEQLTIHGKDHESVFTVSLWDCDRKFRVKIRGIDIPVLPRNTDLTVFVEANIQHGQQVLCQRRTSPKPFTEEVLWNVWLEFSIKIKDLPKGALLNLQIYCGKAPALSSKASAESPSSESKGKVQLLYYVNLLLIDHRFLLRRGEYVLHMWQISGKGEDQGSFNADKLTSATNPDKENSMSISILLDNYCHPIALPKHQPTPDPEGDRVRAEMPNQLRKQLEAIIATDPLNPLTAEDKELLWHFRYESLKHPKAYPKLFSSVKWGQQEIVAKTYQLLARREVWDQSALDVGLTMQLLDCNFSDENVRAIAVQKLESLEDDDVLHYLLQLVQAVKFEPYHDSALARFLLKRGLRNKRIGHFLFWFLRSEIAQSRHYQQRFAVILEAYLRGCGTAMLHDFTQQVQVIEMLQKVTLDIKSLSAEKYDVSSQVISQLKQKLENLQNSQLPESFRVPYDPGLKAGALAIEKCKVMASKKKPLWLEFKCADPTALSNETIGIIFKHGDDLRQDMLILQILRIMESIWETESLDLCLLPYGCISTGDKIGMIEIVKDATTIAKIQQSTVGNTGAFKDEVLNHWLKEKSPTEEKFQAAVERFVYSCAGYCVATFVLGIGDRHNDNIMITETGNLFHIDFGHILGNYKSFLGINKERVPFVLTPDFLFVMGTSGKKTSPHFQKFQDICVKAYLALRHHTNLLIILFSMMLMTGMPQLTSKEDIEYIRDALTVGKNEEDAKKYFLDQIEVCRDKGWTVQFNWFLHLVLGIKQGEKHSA

Sequence of PI3Kδ (p110δ/p85α) Recombinant Human Protein (O00329 whole entry): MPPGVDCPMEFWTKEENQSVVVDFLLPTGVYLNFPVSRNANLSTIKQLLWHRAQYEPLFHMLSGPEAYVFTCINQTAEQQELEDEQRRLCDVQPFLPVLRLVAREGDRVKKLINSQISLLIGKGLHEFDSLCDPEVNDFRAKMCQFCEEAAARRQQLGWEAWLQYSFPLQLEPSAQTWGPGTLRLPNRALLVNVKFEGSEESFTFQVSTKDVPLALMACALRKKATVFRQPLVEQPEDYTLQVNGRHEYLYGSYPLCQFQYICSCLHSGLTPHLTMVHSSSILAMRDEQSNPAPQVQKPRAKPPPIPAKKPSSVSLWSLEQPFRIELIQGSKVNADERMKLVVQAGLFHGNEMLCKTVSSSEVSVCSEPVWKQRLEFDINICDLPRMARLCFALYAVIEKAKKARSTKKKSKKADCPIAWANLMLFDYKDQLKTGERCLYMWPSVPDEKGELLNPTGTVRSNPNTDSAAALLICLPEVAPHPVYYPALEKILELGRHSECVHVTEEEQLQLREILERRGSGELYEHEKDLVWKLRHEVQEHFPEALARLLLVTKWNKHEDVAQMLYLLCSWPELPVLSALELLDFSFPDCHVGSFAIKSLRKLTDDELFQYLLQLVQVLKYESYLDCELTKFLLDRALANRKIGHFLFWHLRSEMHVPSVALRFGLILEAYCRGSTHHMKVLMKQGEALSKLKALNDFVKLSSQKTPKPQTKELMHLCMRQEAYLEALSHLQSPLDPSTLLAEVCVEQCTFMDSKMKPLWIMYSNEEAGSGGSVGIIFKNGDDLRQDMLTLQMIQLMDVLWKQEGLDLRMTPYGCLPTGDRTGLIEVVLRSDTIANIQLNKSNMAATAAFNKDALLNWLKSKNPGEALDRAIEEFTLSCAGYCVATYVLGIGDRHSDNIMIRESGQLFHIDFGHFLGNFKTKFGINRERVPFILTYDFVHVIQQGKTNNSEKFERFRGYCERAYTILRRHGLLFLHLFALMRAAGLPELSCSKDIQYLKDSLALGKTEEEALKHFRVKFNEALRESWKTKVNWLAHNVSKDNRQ
Sequence of PI3Kδ (p110δ/p85α) Recombinant Human Protein (P27986 whole entry partner): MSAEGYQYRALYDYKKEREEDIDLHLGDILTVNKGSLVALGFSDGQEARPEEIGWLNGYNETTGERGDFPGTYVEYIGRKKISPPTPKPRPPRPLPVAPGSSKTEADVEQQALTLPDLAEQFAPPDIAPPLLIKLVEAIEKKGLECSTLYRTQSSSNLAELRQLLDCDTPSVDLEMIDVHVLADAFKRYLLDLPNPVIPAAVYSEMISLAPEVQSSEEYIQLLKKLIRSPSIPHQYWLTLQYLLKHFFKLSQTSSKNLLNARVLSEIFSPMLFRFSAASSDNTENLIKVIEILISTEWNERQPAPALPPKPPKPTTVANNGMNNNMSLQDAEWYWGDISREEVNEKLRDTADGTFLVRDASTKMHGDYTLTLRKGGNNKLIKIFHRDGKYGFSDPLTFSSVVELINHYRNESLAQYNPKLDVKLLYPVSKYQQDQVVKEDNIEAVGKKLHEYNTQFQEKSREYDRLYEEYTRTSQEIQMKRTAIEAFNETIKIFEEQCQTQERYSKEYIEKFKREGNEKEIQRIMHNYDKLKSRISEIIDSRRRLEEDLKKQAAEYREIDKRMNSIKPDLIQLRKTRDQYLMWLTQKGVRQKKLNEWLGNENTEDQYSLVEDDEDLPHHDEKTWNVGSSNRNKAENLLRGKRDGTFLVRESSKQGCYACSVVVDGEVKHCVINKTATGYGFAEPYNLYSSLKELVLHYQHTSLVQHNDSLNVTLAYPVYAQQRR

`CCn1cc(-c2ccnc(-c3ncc(-c4ccccc4)[nH]3)c2)cn1` [Example 10, 4-(1-Ethyl-1H-pyrazol-4-yl)-2-(5-phenyl-1H-imidazol-2-yl)pyridine trifluoroacetate salt]: the IC50 in test [1] is 1000 to 5000 nM; in test [2] it was not above 500 nM; in test [3], not above 500 nM.

As to `CC(=O)Nc1cncc(-c2ccnc(-c3ncc(-c4ccccc4)[nH]3)c2)c1` [Example 17, N-(2′-(5-Phenyl-1H-imidazol-2-yl)-3,4′-bipyridin-5-yl)acetamide trifluoroacetate salt], the IC50 is 300 to 1000 nM in test [1], not above 50 nM in test [2] and not above 50 nM in test [3].

As to `c1ccc(-c2cnc(-c3cc(-c4cncc(N5CCOCC5)c4)ccn3)[nH]2)cc1` [Example 18, 4-(2′-(5-Phenyl-1H-imidazol-2-yl)-3,4′-bipyridin-5-yl)morpholine trifluoroacetate salt], the IC50 is 300 to 1000 nM in test [1], not above 50 nM in test [2] and not above 50 nM in test [3].

On to `COc1cncc(-c2ccnc(-c3ncc(-c4ccccc4)[nH]3)c2)c1` [Example 19, 5-Methoxy2′-(5-phenyl-1H-imidazol-2-yl)-3,4′-bipyridin trifluoroacetate salt], for which the IC50 in test [1] is 1000 to 5000 nM; in test [2], not above 50 nM; in test [3], not above 50 nM.

With `CS(=O)(=O)c1cncc(-c2ccnc(-c3ncc(-c4ccccc4)[nH]3)c2)c1` [Example 40, 5-(Methylsulfonyl)-2′-(5-phenyl-1H-imidazol-2-yl)-3,4′-bipyridine trifluoroacetate salt], the IC50 in test [1] is not above 300 nM; in test [2] it was not above 50 nM; in test [3] it was not above 50 nM.

Take `N#Cc1ccc(Cn2cc(-c3ccnc(-c4ncc(-c5ccccc5)[nH]4)c3)cn2)cc1` [Example 43, 4-((4-(2-(5-Phenyl-1H-imidazol-2-yl)pyridin-4-yl)-1H-pyrazol-1-yl)methyl)benzonitrile trifluoroacetate salt]: the IC50 in test [1] was more than 5000 nM; in test [2] it was more than 500 nM; in test [3] it was not above 500 nM.

Take `O=S(=O)(C1CC1)n1cc(-c2ccnc(-c3ncc(-c4ccccc4)[nH]3)c2)cn1` [Example 46, 4-(1-(Cyclopropylsulfonyl)-1H-pyrazol-4-yl)-2-(5-phenyl-1H-imidazol-2-yl)pyridine trifluoroacetate salt]: the values for the IC50 in test [1], in test [2] and in test [3] were more than 5000 nM, not above 500 nM and not above 100 nM, respectively.

`O=S(=O)(C1CCCC1)n1cc(-c2ccnc(-c3ncc(-c4ccccc4)[nH]3)c2)cn1` [Example 54, 4-(1-(Cyclopentylsulfonyl)-1H-pyrazol-4-yl)-2-(5-phenyl-1H-imidazol-2-yl)pyridine trifluoroacetate salt]: the results for the IC50 in test [1], in test [2] and in test [3] were more than 5000 nM, not above 100 nM and not above 100 nM, respectively.

For the compound `N#CCn1cc(-c2ccnc(-c3ncc(-c4ccccc4)[nH]3)c2)cn1` [Example 56, 2-(4-(2-(5-Phenyl-1H-imidazol-2-yl)pyridin-4-yl)-1H-pyrazol-1-yl)acetonitrile trifluoroacetate salt], the IC50 in test [1] was not above 300 nM; in test [2] it was not above 100 nM; in test [3], not above 100 nM.

`CCNc1ncc(-c2cc(-c3cncc(OC)c3)ccn2)[nH]1` [Example 62, N-Ethyl-5-(5-methoxy-3,4′-bipyridin-2′-yl)-1H-imidazol-2-amine Trifluoroacetate Salt]: the IC50 was more than 5000 nM in test [1], more than 500 nM in test [2] and not above 100 nM in test [3].

In the case of `CCCCCNc1ncc(-c2cc(-c3cncc(OC)c3)ccn2)[nH]1` [Example 63, 5-(5-Methoxy-3,4′-bipyridin-2′-yl)-N-pentyl-1H-imidazol-2-amine trifluoroacetate salt], the values for the IC50 in test [1], in test [2] and in test [3] were more than 5000 nM, more than 500 nM and not above 500 nM, respectively.
